Assay type in all cases: functional, cell-based
In one test the test system is COLO 205. The test is described as follows: cells. To be noted: Homo sapiens.
Another test has as its system Caov-3 cell line. The test is described as follows: cells. To be noted: Homo sapiens.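 Note: cell growth inhibition read out by a viability assay.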
The subject of another test is Caov-4. The test is described as follows: cells. The conditions noted are these: Homo sapiens.
The next test has as its system TT. The test is described as follows: cells. The conditions noted are these: Homo sapiens.
In the next test the test system is PLC-PRF-5. The test is described as follows: cells. The conditions noted are these: Homo sapiens.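 Note: growth inhibition of human PLC-PRF-5 cells, read out with a viability assay.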
The next test deals with SNG-M. Put plainly: cells. To be noted: Homo sapiens.
The next test deals with SNU-475. Put plainly: cells. To be noted: Homo sapiens.
A further test deals with EW-7. The test is described as follows: SANGER: Inhibition of human EW-7 cell growth in a cell viability assay.
Another test deals with CCF-STTG1. Put plainly: cells. To be noted: Homo sapiens.
In the next test the test system is MES-SA. The test is described as follows: cells. The conditions noted are these: Homo sapiens.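 Note: growth inhibition of human MES-SA cells, read out with a cell viability assay.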
The subject of a further test is DMS-53. Put plainly: cells. To be noted: Homo sapiens.
The next test relates to EFE-184. The test is described as follows: cells. The conditions noted are these: Homo sapiens.
A further test concerns SK-CO-1. Put plainly: cells. The conditions noted are these: Homo sapiens.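 Note: growth inhibition of SK-CO-1 cells, determined by a viability readout.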
The test system of a further test is NCI-H838. The test is described as follows: cells. To be noted: Homo sapiens.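 Note: growth inhibition of human NCI-H838 cells, read out by a cell viability assay.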
Another test relates to C-4-II. Put plainly: SANGER: Inhibition of human C-4-II cell growth in a cell viability assay.
The subject of a further test is RT-4. Put plainly: SANGER: Inhibition of human RT4 cell growth in a cell viability assay.
A further test deals with ECC12. The test is described as follows: cells. To be noted: Homo sapiens.
In a further test the test system is DV-90. The test is described as follows: cells. The conditions noted are these: Homo sapiens.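 Note: Read-out is a viability assay, with IC50 reflecting the drop in DV-90 cell growth.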
Another test deals with HCC1143. Put plainly: cells. To be noted: Homo sapiens.
The test system of another test is Calu-1. The test is described as follows: SANGER: Inhibition of human Calu-1 cell growth in a cell viability assay.
The test system of the next test is NCI-H2227. Put plainly: cells. The conditions noted are these: Homo sapiens.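 Note: growth inhibition of the human cell line, read out with a cell viability assay.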
For the next test, the system named is IPC-298. Put plainly: SANGER: Inhibition of human IPC-298 cell growth in a cell viability assay.
The test system of a further test is MFE-296. The test is described as follows: SANGER: Inhibition of human MFE-296 cell growth in a cell viability assay.

A word on the IC50: it is the concentration needed to halve the response being measured. Read a low IC50 as greater potency in that assay.

Description for CCF-STTG1: SANGER: Inhibition of human CCF-STTG1 cell growth in a cell viability assay.
Description for COLO 205: SANGER: Inhibition of human COLO-205 cell growth in a cell viability assay.
Description for Caov-3 cell line: SANGER: Inhibition of human Caov-3 cell growth in a cell viability assay.
Description for Caov-4: SANGER: Inhibition of human Caov-4 cell growth in a cell viability assay.
Description for DMS-53: SANGER: Inhibition of human DMS-53 cell growth in a cell viability assay.
Description for DV-90: SANGER: Inhibition of human DV-90 cell growth in a cell viability assay.
Description for ECC12: SANGER: Inhibition of human ECC12 cell growth in a cell viability assay.
Description for EFE-184: SANGER: Inhibition of human EFE-184 cell growth in a cell viability assay.
Description for HCC1143: SANGER: Inhibition of human HCC1143 cell growth in a cell viability assay.
Description for MES-SA: SANGER: Inhibition of human MES-SA cell growth in a cell viability assay.
Description for NCI-H2227: SANGER: Inhibition of human NCI-H2227 cell growth in a cell viability assay.
Description for NCI-H838: SANGER: Inhibition of human NCI-H838 cell growth in a cell viability assay.
Description for PLC-PRF-5: SANGER: Inhibition of human PLC-PRF-5 cell growth in a cell viability assay.
Description for SK-CO-1: SANGER: Inhibition of human SK-CO-1 cell growth in a cell viability assay.
Description for SNG-M: SANGER: Inhibition of human SNG-M cell growth in a cell viability assay.
Description for SNU-475: SANGER: Inhibition of human SNU-475 cell growth in a cell viability assay.

For the molecule `O=c1[nH]c2ccccc2n1C1CCN(Cc2ccc(-c3nc4cc5[nH]cnc5cc4nc3-c3ccccc3)cc2)CC1`, the IC50 with COLO 205 was 2000 nM; with Caov-3 cell line it was over 2560 nM; in the test on Caov-4, over 2560 nM; in the test on TT, over 2560 nM; with PLC-PRF-5, over 2560 nM; in the test with SNG-M, over 2560 nM. Besides, the IC50 with SNU-475, in the test with EW-7, in the test with CCF-STTG1, with MES-SA, in the test on DMS-53 and in the test with EFE-184 was over 2560 nM throughout. Also, the IC50 in the test on SK-CO-1, in the test on NCI-H838, with C-4-II, in the test on RT-4, with ECC12 and with DV-90 was over 2560 nM throughout. Besides, the IC50 in the test with HCC1143 is over 2560 nM; with Calu-1, over 2560 nM; in the test with NCI-H2227, over 2560 nM; in the test on IPC-298 it was over 2560 nM; in the test on MFE-296, 1380 nM.
As to `Fc1cc(-c2cc[nH]/c(=N/c3ccc(-n4cnc(N5CCOCC5)n4)cc3)n2)cc(N2CCOCC2)c1`, the IC50 in the test with COLO 205 is 152 nM; with Caov-3 cell line, over 5120 nM; in the test on Caov-4 it was over 5120 nM; with TT, 3550 nM; in the test with PLC-PRF-5, 3950 nM; with SNG-M, 642 nM. In addition, the IC50 is over 5120 nM with SNU-475; 562 nM in the test with EW-7; 624 nM in the test with CCF-STTG1; 717 nM in the test on MES-SA; 1080 nM with DMS-53; 3040 nM in the test with EFE-184. Further, the IC50 in the test on SK-CO-1 was 912 nM; in the test on NCI-H838, 416 nM; with C-4-II, 405 nM; with RT-4, 3560 nM; in the test with ECC12 it was 324 nM; in the test on DV-90, 958 nM. Moreover, the IC50 was 954 nM in the test on HCC1143; 3120 nM with Calu-1; over 5120 nM in the test on NCI-H2227; 854 nM with IPC-298; 174 nM in the test on MFE-296.
On to `CC(C)=CC[C@@H](O)C1=CC(=O)c2c(O)ccc(O)c2C1=O` [SHIKONIN], for which the IC50 worked out at 538 nM with COLO 205; 767 nM with Caov-3 cell line; 1880 nM in the test on Caov-4; 1700 nM in the test on TT; 1820 nM in the test with PLC-PRF-5; 272 nM in the test with SNG-M. For the same molecule, the IC50 was 14100 nM in the test with SNU-475; 1290 nM in the test with EW-7; 768 nM with CCF-STTG1; 41.3 nM in the test on MES-SA; over 16000 nM in the test with DMS-53; 544 nM with EFE-184. Also, the IC50 in the test on SK-CO-1 was 2050 nM; with NCI-H838, over 16000 nM; with C-4-II it was 588 nM; in the test on RT-4, 10100 nM; in the test on ECC12, 9650 nM; in the test on DV-90, over 16000 nM. Further, the IC50 is 530 nM in the test with HCC1143; 1230 nM in the test with Calu-1; 4890 nM in the test with NCI-H2227; over 16000 nM in the test on IPC-298; 662 nM in the test with MFE-296.

For the origin of these results see ChEMBL document CHEMBL1201861, “Genomics of Drug Sensitity in Cancer screening data, Wellcome Trust Sanger Institute”.
